# Measured values taken from PMC6193938, “Characterization of a novel AICARFT inhibitor which potently elevates ZMP and has anti-tumor activity in murine models” (Scientific Reports, 2018).
# Read-outs that look alike come from different tables or passages of the source.
# Tested on: panel of human cell lines
# Test: In vitro proliferation assay, Cell Titer Glo, two doubling times, 298 cell lines
# Type: cell-based
# Conditions: Homo sapiens, read-out: ABS_IC50_VALUE
# From the text: Cell Titer Glo measures ATP, thus the IC50s represent both the effect on purine production and cell proliferation, which are related. […] Folates are actively taken up in cells by reduced folate carrier (SLC19A1), proton-coupled folate transporter (SLC46A1), and the FOLR1 folate receptor[17]. Once inside the cell, folates are trapped by polyglutamation catalyzed by folylpolyglutamate synthetase (FPGS). […] Gene expression data for ATIC, GART, APRT, HPRT, FOLR1, SLC19A1, SLC46A1 & FPGS are shown in Fig. 2, since these genes were anticipated to predict sensitivity. […] The MDA-MB-231 cell line is reduced folate carrier (SLC19A1) negative due to epigenetic silencing.
# Cells were cultured using recommended culture conditions unless noted otherwise (Supplemental Table 3). Cells were plated, dosed with compound and incubated at 37 °C for approximately 2 doubling times as determined for each cell line. Cell Titer Glo (Promega) assay was used to measure proliferation according to manufacturer’s recommendations by measuring luminescence with Flexstation3 (Molecular Devices) with 500 ms integration time. […] The % response was fit to a four-parameter logistic equation using ACTIVITYBASE 4.0 to determine the absolute IC50 values.
# Cell Lines: Cell lines of adrenal gland, autonomic ganglia, biliary tract, blood ALL, blood AML, blood CML, blood hodgkin lymphoma, blood lymphoma, blood multiple myeloma, blood NHL, blood RAEB, bone, breast ER+, breast fibroblast, breast fibroblast mixed, breast HER2, breast normal, breast triple negative, cervix, CNS, endometrium, eye, fibroblast normal, kidney ns, kidney renal, large intestine, liver, liver normal, lung adenocarcinoma, lung ns, lung NSCLC, lung NSCLC mixed, lung SCLC, lung squamous, melanoma, melanoma normal, esophagus adenocarcinoma, esophagus ns, esophagus squamous, ovary, pancreas adenocarcinoma, pancreas ductal carcinoma, pancreas ns, pleura mesothelioma, prostate adenocarcinoma, prostate small cell, salivary gland, small intestine, soft tissue, stomach, testis, thyroid, thyroid squamous, umbilical vein endothelial cell normal, upper aerodigestive tract squamous, urinary tract ns, urinary tract transitional cell carcinoma, and vulva squamous origin were obtained from ATCC, CASTCC, CLS, DSMZ, ECACC, HSRRB, ICLC, JCRB, NCI, Riken and SNU cell banks. The murine A9 cell line was acquired from the ATCC (CCL-1.4).
smiles,measurement,setting,value
"O=c1[nH]ccc2cc(F)c(NS(=O)(=O)c3ccc(N4CC[C@@H](O)C4)s3)cc12 [LSN3213128, N-(6-Fluoro-1-oxo-1,2-dihydroisoquinolin-7-yl)-5-[(3R)-3-hydroxypyrrolidin-1-yl]thiophene-2-sulfonamide]",IC50,"REH, haematopoietic and lymphoid tissue",6.9 µM
same,IC50,"RERF-LC-MS, lung",1.92 µM
same,IC50,"RKN, ovary",> 20 µM
same,IC50,"RKO, large intestine",8.04 µM
same,IC50,"RL95-2, RL95-2, endometrium",> 20 µM
same,IC50,"RL, haematopoietic and lymphoid tissue",0.76 µM
same,IC50,"RMG-I, ovary",> 20 µM
same,IC50,"RPMI-7951, RPMI-7951, skin",> 20 µM
same,IC50,"RPMI-8226, RPMI-8226, haematopoietic and lymphoid tissue",12.6 µM
same,IC50,"RT4, urinary tract",> 20 µM
same,IC50,"RT112/84, RT112/84, urinary tract",1.92 µM
same,IC50,"Raji, haematopoietic and lymphoid tissue",7.5 µM
same,IC50,"Rec1, REC-1, haematopoietic and lymphoid tissue",> 20 µM
same,IC50,"SCC-4, SCC-4, upper aerodigestive tract",> 20 µM
same,IC50,"SCC-9, SCC-9, upper aerodigestive tract",> 20 µM
same,IC50,"SCC-15, SCC-15, upper aerodigestive tract",> 20 µM
same,IC50,"SCC-25, SCC-25, upper aerodigestive tract",> 20 µM
same,IC50,"SH-10-TC, stomach",> 20 µM
same,IC50,"SJRH30, SJRH30, soft tissue",5.13 µM
same,IC50,"SJSA-1, SJSA-1, bone",> 20 µM
same,IC50,"SK-BR-3, SK-BR-3, breast",6.52 µM
same,IC50,"SK-CO-1, SK-CO-1, large intestine",12.8 µM
same,IC50,"SK-ES1, SK-ES-1, bone",> 20 µM
same,IC50,"SK-HEP1, SK-HEP-1, liver",11.1 µM
same,IC50,"SK-LMS-1, SK-LMS-1, soft tissue",0.91 µM
same,IC50,"SK-LU-1, SK-LU-1 (lung, adenocarcinoma)",> 20 µM
same,IC50,"SK-MEL3, SK-MEL-3 (skin, malignant melanoma)",> 20 µM
same,IC50,"SK-MEL-2, SK-MEL-2 (skin, malignant melanoma)",> 20 µM
same,IC50,"SK-MEL-5, SK-MEL-5 (skin, melanoma)",> 20 µM
same,IC50,"SK-MEL-24, SK-MEL-24 (skin, malignant melanoma)",> 20 µM
same,IC50,"SK-MEL-28, SK-MEL-28 (skin, malignant melanoma)",0.47 µM
same,IC50,"SK-MEL-31 (skin, malignant melanoma)",> 20 µM
same,IC50,"SK-MES-1, SK-MES-1 (lung; squamous cell carcinoma)",2.25 µM
same,IC50,"SK-N-AS, SK-N-AS (brain, neuroblastoma)",> 20 µM
same,IC50,"SK-OV-3, SK-OV-3 (ovary, adenocarcinoma)",> 20 µM
same,IC50,"SNB-19, SNB19 (central nervous system, Glioblastoma)",0.79 µM
same,IC50,"SNG-M (endometrium, endometrial adenocarcinoma)",> 20 µM
same,IC50,"SNU-182, SNU-182 (liver, hepatocellular carcinoma)",20.7 µM
same,IC50,"SNU-216, SNU-216 (stomach, Human gastric carcinoma)",> 20 µM
same,IC50,"SNU-387, SNU-387 (liver, pleomorphic hepatocellular carcinoma)",27 µM
same,IC50,"SNU-398, SNU-398 (liver, hepatocellular carcinoma)",16.4 µM
same,IC50,"SNU-423, SNU-423 (liver, pleomorphic hepatocellular carcinoma)",21.7 µM
same,IC50,"SNU-449, SNU-449 (liver, hepatocellular carcinoma)",11.3 µM
same,IC50,"SNU-475, SNU-475 (liver, hepatocellular carcinoma)",24.8 µM
same,IC50,"SNU-C1, SNU-C1 (large intestine, colon, adenocarcinoma)",4.55 µM
same,IC50,"SNU-C2A (large intestine, cecum, colorectal carcinoma)",> 20 µM
same,IC50,"SW48, SW48 (large intestine, colon, colorectal adenocarcinoma)",6.86 µM
same,IC50,"SW480, SW480 (large intestine, colon, colorectal adenocarcinoma)",1.97 µM
same,IC50,"SW837, SW837 (large intestine, rectum, adenocarcinoma)",1.28 µM
same,IC50,"SW1271, SW 1271 (lung; small cell lung carcinoma)",10.4 µM
same,IC50,"SW1353, SW 1353 (bone, chondrosarcoma)",> 20 µM
same,IC50,"SW1417, SW1417 (large intestine, colon, colorectal adenocarcinoma)",> 20 µM
same,IC50,"SW1463, SW1463 (large intestine, rectum, colorectal adenocarcinoma)",15.1 µM
same,IC50,"SW-620, SW620 (large intestine, colon, adenocarcinoma)",> 20 µM
same,IC50,"T84 (large intestine, colon, colorectal carcinoma)",> 20 µM
same,IC50,"T98G, T98G (central nervous system, glioblastoma multiforme)",3.62 µM
same,IC50,"TCC-SUP, TCCSUP (urinary bladder, transitional cell carcinoma)",4.2 µM
same,IC50,"TE-1 (oesophagus, esophageal squamous cell carcinoma)",1.08 µM
same,IC50,"TE-5 (oesophagus, esophageal squamous cell carcinoma)",4.79 µM
same,IC50,"TE-9 (oesophagus, esophageal squamous cell carcinoma)",1.17 µM
same,IC50,"TE-11, TE-11 (oesophagus, esophageal squamous cell carcinoma)",2.02 µM
same,IC50,"TE-15, TE-15 (oesophagus, esophageal squamous cell carcinoma)",0.73 µM
same,IC50,"THP-1, THP-1 (haematopoietic and lymphoid tissue, leukemia, acute monocytic)",5.52 µM
same,IC50,"TOV21G, TOV-21G (ovary, clear cell carcinoma)",> 20 µM
same,IC50,"TT (thyroid, carcinoma)",10.6 µM
same,IC50,"Toledo, Toledo (haematopoietic and lymphoid tissue, diffuse large cell lymphoma)",> 20 µM
same,IC50,"U-251, U251 (central nervous system, human glioma)",3.02 µM
same,IC50,"U-266, U-266 (haematopoietic and lymphoid tissue, myeloma; plasmacytoma)",13.4 µM
same,IC50,"UACC-812, UACC-812 (breast, ductal carcinoma)",> 20 µM
same,IC50,"UMUC3, UM-UC-3 (urinary bladder, transitional cell carcinoma)",1.93 µM
same,IC50,"VCaP, VCaP (prostate, prostate cancer)",7.74 µM
same,IC50,"VMRC-RCZ (kidney, renal cancer)",7.61 µM
same,IC50,"WM 266-4, WM-266-4 (skin, melanoma)",> 20 µM
same,IC50,"WM-115, WM-115 (skin, malignant melanoma)",> 20 µM
same,IC50,"ZR-75-30, ZR-75-30 (breast, ductal carcinoma)",> 20 µM
